Laboratory results reported in patent publication US20070037788A1, “Tricyclic steroid hormone nuclear receptor modulators” (Eli Lilly and Company, priority 2003, published 2007).

Experiments:
glucocorticoid receptor = molecular target: T1, glucocorticoid receptor (Homo sapiens, UniProt P04150); experiment: Glucocorticoid Receptor Binding Assay (Method 1); details: A549 cell extract, [3H]-dexamethasone, read-out: GR Ki
T1 construct: containing 50-200 ug of A549 cell extract and 1.86 nM [^3H]-dexamethasone; host or cells: A549 human lung epithelial cells
T1 sequence (P04150 1-777): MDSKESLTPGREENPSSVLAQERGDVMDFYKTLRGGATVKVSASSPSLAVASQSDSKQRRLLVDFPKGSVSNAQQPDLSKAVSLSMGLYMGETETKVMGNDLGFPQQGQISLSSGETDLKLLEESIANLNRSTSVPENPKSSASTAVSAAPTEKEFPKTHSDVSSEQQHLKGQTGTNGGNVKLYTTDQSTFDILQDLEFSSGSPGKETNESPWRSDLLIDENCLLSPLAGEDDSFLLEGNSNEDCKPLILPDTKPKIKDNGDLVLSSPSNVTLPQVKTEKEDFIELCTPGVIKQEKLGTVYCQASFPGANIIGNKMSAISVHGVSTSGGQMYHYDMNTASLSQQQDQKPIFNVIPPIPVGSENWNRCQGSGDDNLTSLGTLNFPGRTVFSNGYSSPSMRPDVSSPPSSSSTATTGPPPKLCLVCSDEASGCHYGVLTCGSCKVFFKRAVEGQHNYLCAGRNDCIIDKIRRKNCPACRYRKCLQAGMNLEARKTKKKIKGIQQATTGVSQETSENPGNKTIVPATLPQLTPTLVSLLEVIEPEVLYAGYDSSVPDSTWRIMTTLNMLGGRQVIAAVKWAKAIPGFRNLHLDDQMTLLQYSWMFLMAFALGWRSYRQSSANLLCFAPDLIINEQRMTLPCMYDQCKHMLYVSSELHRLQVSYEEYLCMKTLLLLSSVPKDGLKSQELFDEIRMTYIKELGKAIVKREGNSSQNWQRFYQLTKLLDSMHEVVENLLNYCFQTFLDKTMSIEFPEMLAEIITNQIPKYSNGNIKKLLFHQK
Method: A549 human lung epithelial cells (ATCC) are grown at a scale where gram quantity cell pellets are obtained. Harvested cell pellets are washed twice in cold phosphate buffered saline, centrifuged, and resuspended in cold assay binding buffer. The assay binding buffer consists of 10% glycerol, 50 mM Tris-HCl (pH7.2), 75 mM sodium chloride, 1.5 mM magnesium chloride, 1.5 mM EDTA, and 10 mM sodium molybdate. Cell suspensions were lysed via sonication, centrifuged, and the “extract” supernatant is snap frozen and stored at −80 C until needed.
GR binding assays are performed in a final volume of 140 ul containing 50-200 ug of A549 cell extract and 1.86 nM [^3H]-dexamethasone (Amersham) plus varying concentrations of test compound or vehicle. Briefly, assays are prepared at RT in 96-well Fisher 3356 plates, each well containing 100 ul of A549 cell extract, 20 ul of [^3H]-dexamethasone, and 20 ul of test compound/vehicle. Incubations are carried out at 4 degrees Celsius for 16 hours. After incubation, 70 ul of 3× dextran-coated charcoal solution is added to each reaction, mixed, and incubated for 8 minutes at RT. […] 200 ul of Microscint-20 scinillant (Packard Instruments) is added to each well and amount of receptor bound radioligand is determined using Packard Instruments TopCount instrument.

human MR = molecular target: T2, human MR (Homo sapiens, UniProt P08235); experiment: Mineralocorticoid Receptor Binding Assay (Method 1); details: [3H]-aldosterone
T2 construct: The full length human MR gene is cloned from a human kidney or human brain cDNA library; made in house; host or cells: SF9 insect cells (baculovirus)
T2 sequence (P08235 1-984): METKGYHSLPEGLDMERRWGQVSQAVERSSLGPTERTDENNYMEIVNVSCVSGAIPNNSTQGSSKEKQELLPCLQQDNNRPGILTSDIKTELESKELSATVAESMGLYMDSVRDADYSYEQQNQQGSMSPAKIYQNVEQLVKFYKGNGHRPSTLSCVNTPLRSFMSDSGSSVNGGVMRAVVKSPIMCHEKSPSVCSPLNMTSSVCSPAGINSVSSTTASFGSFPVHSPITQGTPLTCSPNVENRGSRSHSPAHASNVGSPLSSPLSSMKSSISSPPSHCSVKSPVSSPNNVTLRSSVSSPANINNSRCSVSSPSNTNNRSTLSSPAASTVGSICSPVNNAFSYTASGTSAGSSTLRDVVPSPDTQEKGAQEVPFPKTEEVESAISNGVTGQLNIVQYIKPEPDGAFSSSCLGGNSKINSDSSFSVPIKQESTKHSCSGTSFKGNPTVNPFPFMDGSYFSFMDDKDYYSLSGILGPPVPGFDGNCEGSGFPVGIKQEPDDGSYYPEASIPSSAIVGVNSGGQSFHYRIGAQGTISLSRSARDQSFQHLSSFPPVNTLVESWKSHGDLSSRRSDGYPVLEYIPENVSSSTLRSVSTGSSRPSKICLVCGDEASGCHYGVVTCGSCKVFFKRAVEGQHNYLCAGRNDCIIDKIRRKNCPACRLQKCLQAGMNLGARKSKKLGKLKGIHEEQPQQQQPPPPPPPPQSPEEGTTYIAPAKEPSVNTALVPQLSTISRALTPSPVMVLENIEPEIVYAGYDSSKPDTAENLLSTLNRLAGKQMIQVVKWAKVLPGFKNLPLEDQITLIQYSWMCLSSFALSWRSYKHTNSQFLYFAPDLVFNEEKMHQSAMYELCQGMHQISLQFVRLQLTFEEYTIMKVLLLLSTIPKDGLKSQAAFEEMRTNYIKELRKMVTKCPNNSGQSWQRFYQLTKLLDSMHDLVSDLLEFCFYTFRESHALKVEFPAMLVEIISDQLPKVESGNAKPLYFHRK
Method: The full length human MR gene is cloned from a human kidney or human brain cDNA library. Briefly, using synthetic oligonucleotide primers (Eli Lilly and Company, Indianapolis) directed to nucleotides 20-54 and 3700-3666 of the human MR, polymerase chain reaction (PCR) is performed under standard conditions using a human cDNA library. The PCR reaction is performed in a final volume of 50 μl containing about 1 μl of a 50× stock solution of polymerase; about 1 μl of a 50× stock solution of DNTP; about 5 μl of an appropriate PCR buffer; about 1 μl of each primer; about 5 μl of a H. kidney or H. brain cDNA library; and about 36 μl of water. The reaction is allowed to denature for about 30 seconds at 95 degrees Celsius, anneal for about 30 seconds at 55 degrees Celsius, and extend for about 5 minutes at 72 degrees Celsius, the sequence being repeated for a total of about 35 cycles. The desired PCR product (3.68 Kb) is confirmed by gel electrophoresis and subsequently cut from the gel and stored at about −20 degrees Celsius until extraction. To extract the cDNA product from the agarose gel, the QIAEX II Gel Extraction protocol (QIAGEN, Inc.) is employed according to the manufacturer's instructions. Following extraction, the MR cDNA is cloned into an appropriate cloning vector (Zero Blunt TOPO PCR Cloning Kit (Invitrogen, Inc.) and a pAcHLT-baculovirus transfer vector (B.D./Pharminogen), then expressed in SF9 insect cells, essentially according to manufacturer's instructions. Sf9 cells are grown at a scale where gram quantity cell pellets are obtained for subsequent use in the MR binding assay. Harvested cell pellets are lysed by repeated freeze-thaw cycles (about 4) in a suitable lysis buffer then centrifuged at about 1×10^3 G (with the supernatant being saved for future assays).
MR binding assays are performed in a final total volume of about 250 μl containing about 20-25 μg of protein and 0.5 nM of [^3H]-aldosterone plus varying concentrations of test compound or vehicle. The assay binding buffer consists of 30 mM sodium molybdate, 30 mM of TRIS-HCl, 5 mM sodium phosphate, 5 mM sodium pyrophosphate, and about 10% glycerol, pH=7.5.
Briefly, assays are prepared at RT in 96-well Falcon 3072 plates, each well containing 210 μl of binding buffer, 10 μl of [^3H]-aldosterone, 10 μl of test compound/vehicle, and 20 μl of the resuspended receptor protein extract. Incubations are carried out at 4 degrees Celsius with shaking for about 16 hours. 200 μl aliquots of each incubation are filtered onto Millipore HA 0.45 micron 96-well filter plates, pre-moistened with cold 30 mM TRIS-HCl. The filter plates are suctioned dry with vacuum and immediately washed 3× with cold 30 mM TRIS-HCl. The plates are then punched out and the amount of receptor-ligand complex is determined by liquid scintillation counting using 4 ml of Ready Protein Plus™ liquid scintillation cocktail.

[1] = in combination with standard CHF therapy, patients suffering from advanced CHF; cited from earlier work

SMILES	Ki (human MR)	other results
CN(C)CCn1c(=O)[nH]c2cc(/C=C3\c4ccccc4COc4cc(F)ccc43)ccc21 [Example 6]	< 500 nM	Ki (glucocorticoid receptor): < 10000 nM
CN1CC[C@@H](n2c(=O)[nH]c3cc(/C=C4/c5ccc(F)cc5OCc5c(F)cccc54)ccc32)C1 [Example 47]	< 500 nM	
O=c1[nH]c2cc(C=C3c4ccc(F)cc4CCc4cc(F)ccc43)ccc2n1CCCN1CCOCC1 [Example 48]	< 500 nM	
O=c1[nH]c2cc(C=C3c4ccc(F)cc4CCc4cc(F)ccc43)ccc2n1CCN1CCNCC1 [Example 49]	< 500 nM	
O=c1[nH]c2cc(C=C3c4ccc(F)cc4CCc4cc(F)ccc43)ccc2n1CCN1CCCC1 [Example 50]	< 500 nM	
CN(C)CCn1c(=O)[nH]c2cc(C=C3c4ccc(F)cc4CCc4cc(F)ccc43)ccc21 [Example 51]	< 500 nM	
CN1CCN(CCn2c(=O)[nH]c3cc(C=C4c5ccc(F)cc5CCc5cc(F)ccc54)ccc32)CC1 [Example 52]	< 500 nM	
CC(=O)S[C@@H]1CC2=CC(=O)CC[C@]2(C)[C@H]2CC[C@@]3(C)[C@@H](CC[C@@]34CCC(=O)O4)[C@H]12 [spironolactone]		reduced cardiac related mortality [1]: 30%; reduced frequency of hospitalization [1]: 35%
